Measured values as given in US20060009480A1, “Sinomenine and sinomenine compounds, synthesis and use” (priority 2002, published 2006).

How the values were obtained:
[1] = test system: Wistar rat; assay: Social recognition in the Wistar rat; assay type: in vivo; conditions: dose of 20 mg/kg (printed for Example 13); second encounter after 2 hours
Text: Initially described in 1982 by THOR and HOLLOWAY (J. Comp. Physiol., 1982, 96, 1000-1006), the social recognition test has subsequently been proposed by various authors (DANTZER et al., Psychopharmacology, 1987, 91, 363-368; PERIO et al., Psychopharmacology, 1989, 97, 262-268) for studying the mnemocognitive effects of new compounds. The test is based on the natural expression of the olfactory memory of the rat and its natural tendency to forget, and allows evaluation of memorisation, by recognition of a young congeneric animal, by an adult rat. A young rat (21 days), taken at random, is placed for 5 minutes in the cage housing an adult rat. With the aid of a video device, the experimenter observes the social recognition behaviour of the adult rat and measures its overall duration. The young rat is then removed from the adult rat's cage and is placed in its own cage until the second introduction. The adult rat is given the compound under test and, after 2 hours, is again brought into the presence (5 minutes) of the young rat. The social recognition behaviour is then observed again and its duration measured. The assessment criterion is the difference (T2−T1), expressed in seconds, between the “recognition” times of the 2 encounters.

[2] = test system: Wistar rat; assay: Object recognition in the Wistar rat; assay type: in vivo; conditions: dose of 3 mg/kg; second session 24 hours later
Text: The object recognition test in the Wistar rat was initially developed by ENNACEUR and DELACOUR (Behav. Brain Res., 1988, 31, 47-59). The test is based on the spontaneous exploratory activity of the animal and has the characteristics of episodic memory in humans. This memory test is sensitive to ageing (SCALI et al., Eur. J. Pharmacol., 1997, 325, 173-180) and to cholinergic dysfunctions (BARTOLINI et al., Pharm. Biochem. Behav. 1996, 53(2), 277-283) and is based on the differences in the exploration of 2 objects of fairly similar shape—one familiar, the other new. Prior to the test, the animals are habituated to the environment (an enclosure without an object). In the course of a first session, the rats are placed (3 minutes) in the enclosure, in which there are 2 identical objects. The duration of exploration is measured for each object. In the course of the second session (3 minutes), 24 hours later, 1 of the 2 objects is replaced by a new object. The duration of exploration is measured for each object. The assessment criterion is the difference, Delta, expressed in seconds, between the exploration times for the new object and for the familiar object in the course of the second session.

[3] = test system: NaNO2 induced anoxia; assay: NaNO2 induced anoxia in mice; assay type: in vivo, mouse; conditions: 70 mg/kg p.o.; NaNO2 225 mg/kg ip

SMILES | difference (T2−T1) between the recognition times of the 2 encounters [1] [s] | difference, Delta, between the exploration times for the new object and the familiar object [2] [s] | prolongation of survival [3] [%]
COC1=CC2C3Cc4c(Br)cc(OC)c(O)c4C2(CCN3C)CC1O (stereo not drawn) [Example 13, (9α,13α)-1-Bromo-3,7-dimethoxy-17-methyl-7,8-didehydromorphinan-4,6-diol] | -36 |  | 
COC1=CC2C3Cc4c(Cl)cc(OC)c(O)c4C2(CCN3C)CC1O (stereo not drawn) [Example 4, (9α,13α)-1-Chloro-3,7-dimethoxy-17-methyl-7,8-didehydromorphinan-4,6-diol] |  | 10 | 
CCC(=O)Oc1c(OC)cc(Cl)c2c1C13CCN(C)C(C2)C1C=C(OC)C(OC(=O)CC)C3 (stereo not drawn) [Example 5, (9α,13α)-1-Chloro-3,7-dimethoxy-17-methyl4-(propionyloxy)7,8-didehydromorphinan-6-yl propionate] | -31 |  | 31
